Like-named read-outs stand apart in the source and are kept apart here.
How the values were obtained:
[1] = system: WP2 uvrA strains (tryptophan auxotrophic strains); experiment: Reverse mutation assay (Ames test), E. coli WP2 uvrA
Procedure: (§1) This assay is carried out to test mutagenicity of chemical substances using histidine auxotrophic strains that are one of Salmonella Typhimurium mutants. […] When various mutagens are added to the culture medium, only revertants generated by reverse mutation survive.
(§2) Ames test was carried out using […]. […] After incubation, the number of revertant colonies was counted. 3 plates were prepared for each test and the average was calculated.

TA1537 = experiment: Reverse mutation assay (Ames test), TA1537
Procedure: as §1, §2

ICR mice [2] = experiment: Oral administration toxicity assay; conditions: for Days for the test (death) Total: deaths/mice; for Days for the Test (death) 4: day 4
TA98 = system: TA98
Procedure: as §1, §2

TA1535 = system: TA1535
Procedure: as §1, §2

TA100 = system: TA100
Procedure: as §1, §2

ICR mice [3] = experiment: Acute (intravenous administration) toxicity assay; conditions: for Days for the test (death) 2: day 2; for Days for the test (death) Total: deaths/mice; for Days for the test (death) 1: day 1
[4] = system: BALB/c mouse spleen cell (responding) and DBA/2 mouse spleen cell (stimulating); type: cell-based
Procedure: MLR tests were carried out to determine the immunosuppressive effect of an immunosuppressive candidate material. When a responding cell (BALB/c mouse spleen cell) and a stimulating cell (DBA/2 mouse spleen cell) were cultured separately, the cells grew little. On the contrary, when the cells were simultaneously cultured, the cells were proliferated due to induction of an antigen-antibody reaction. The proliferated cells were treated with the immunosuppressive candidate material for measurement of the proliferation inhibitory extent.
After culturing for 72 hours at a CO2 incubator, a 20 μl MTS solution was added to each well, followed by further culturing for 2 to 4 hours and measuring OD at […] by using ELISA.

[5] = TA1525 (so in the source), 317.5 μg/Plate
[6] = TA1525 (so in the source), 625 μg/Plate
[7] = TA1525 (so in the source), 1250 μg/Plate
[8] = TA1525 (so in the source), 2500 μg/Plate
[9] = TA1525 (so in the source), 5000 μg/Plate
[10] = Positive control group, TA1537, 50 μg/Plate
[11] = Positive control group, TA1535, 0.5 μg/Plate
[12] = Positive control group, TA100, 0.5 μg/Plate

COc1cc2c(c(OC)c1OC)-c1ccc(OC)c(=O)cc1[C@@H](NC(C)=O)CC2 [Colchicine]
Colony/Plate S-9 Mixture (+) ([1]; 317.5 μg/Plate): 11 Colony/Plate
Colony/Plate S-9 Mixture (−) ([1]; 317.5 μg/Plate): 10 Colony/Plate
Colony/Plate S-9 Mixture (+) ([1]; 625 μg/Plate): 14 Colony/Plate
Colony/Plate S-9 Mixture (−) ([1]; 625 μg/Plate): 6 Colony/Plate
Colony/Plate S-9 Mixture (+) ([1]; 1250 μg/Plate): 14 Colony/Plate
Colony/Plate S-9 Mixture (−) ([1]; 1250 μg/Plate): 11 Colony/Plate
Colony/Plate S-9 Mixture (+) ([1]; 2500 μg/Plate): 12 Colony/Plate
Colony/Plate S-9 Mixture (−) ([1]; 2500 μg/Plate): 10 Colony/Plate
Colony/Plate S-9 Mixture (+) ([1]; 5000 μg/Plate): 8 Colony/Plate
Colony/Plate S-9 Mixture (−) ([1]; 5000 μg/Plate): 11 Colony/Plate
Colony/Plate S-9 Mixture (+) (TA1537; TA1537, 317.5 μg/Plate): 20 Colony/Plate
Colony/Plate S-9 Mixture (−) (TA1537; TA1537, 317.5 μg/Plate): 17 Colony/Plate
Colony/Plate S-9 Mixture (+) (TA1537; TA1537, 625 μg/Plate): 18 Colony/Plate
Colony/Plate S-9 Mixture (−) (TA1537; TA1537, 625 μg/Plate): 14 Colony/Plate
Colony/Plate S-9 Mixture (+) (TA1537; TA1537, 1250 μg/Plate): 18 Colony/Plate
Colony/Plate S-9 Mixture (−) (TA1537; TA1537, 1250 μg/Plate): 10 Colony/Plate
Colony/Plate S-9 Mixture (+) (TA1537; TA1537, 2500 μg/Plate): 21 Colony/Plate
Colony/Plate S-9 Mixture (−) (TA1537; TA1537, 2500 μg/Plate): 8 Colony/Plate
Colony/Plate S-9 Mixture (+) (TA1537; TA1537, 5000 μg/Plate): 21 Colony/Plate
Colony/Plate S-9 Mixture (−) (TA1537; TA1537, 5000 μg/Plate): 9 Colony/Plate
Days for the test (death) Total (ICR mice [2]; 5 mg/kg): 0/5
Days for the test (death) Total (ICR mice [2]; 10 mg/kg): 0/5
Days for the Test (death) 3 (ICR mice [2]; 25 mg/kg, day 3): 3
Days for the Test (death) 4 (ICR mice [2]; 25 mg/kg): 1
Days for the test (death) Total (ICR mice [2]; 25 mg/kg): 4/5
Days for the test (death) 2 (ICR mice [2]; 50 mg/kg, day 2): 3
Days for the Test (death) 4 (ICR mice [2]; 50 mg/kg): 1
Days for the Test (death) 5 (ICR mice [2]; 50 mg/kg, day 5): 1
Days for the test (death) Total (ICR mice [2]; 50 mg/kg): 5/5
Colony/Plate S-9 Mixture (+) (TA98; TA98, 317.5 μg/Plate): 37 Colony/Plate
Colony/Plate S-9 Mixture (−) (TA98; TA98, 317.5 μg/Plate): 29 Colony/Plate
Colony/Plate S-9 Mixture (+) (TA98; TA98, 625 μg/Plate): 32 Colony/Plate
Colony/Plate S-9 Mixture (−) (TA98; TA98, 625 μg/Plate): 29 Colony/Plate
Colony/Plate S-9 Mixture (+) (TA98; TA98, 1250 μg/Plate): 33 Colony/Plate
Colony/Plate S-9 Mixture (−) (TA98; TA98, 1250 μg/Plate): 29 Colony/Plate
Colony/Plate S-9 Mixture (+) (TA98; TA98, 2500 μg/Plate): 37 Colony/Plate
Colony/Plate S-9 Mixture (−) (TA98; TA98, 2500 μg/Plate): 24 Colony/Plate
Colony/Plate S-9 Mixture (+) (TA98; TA98, 5000 μg/Plate): 28 Colony/Plate
Colony/Plate S-9 Mixture (−) (TA98; TA98, 5000 μg/Plate): 26 Colony/Plate
Colony/Plate S-9 Mixture (+) (TA1535; [5]): 13 Colony/Plate
Colony/Plate S-9 Mixture (−) (TA1535; [5]): 18 Colony/Plate
Colony/Plate S-9 Mixture (+) (TA1535; [6]): 13 Colony/Plate
Colony/Plate S-9 Mixture (−) (TA1535; [6]): 15 Colony/Plate
Colony/Plate S-9 Mixture (+) (TA1535; [7]): 7 Colony/Plate
Colony/Plate S-9 Mixture (−) (TA1535; [7]): 17 Colony/Plate
Colony/Plate S-9 Mixture (+) (TA1535; [8]): 12 Colony/Plate
Colony/Plate S-9 Mixture (−) (TA1535; [8]): 17 Colony/Plate
Colony/Plate S-9 Mixture (+) (TA1535; [9]): 10 Colony/Plate
Colony/Plate S-9 Mixture (−) (TA1535; [9]): 13 Colony/Plate
Colony/Plate S-9 Mixture (+) (TA100; TA100, 317.5 μg/Plate): 79 Colony/Plate
Colony/Plate S-9 Mixture (−) (TA100; TA100, 317.5 μg/Plate): 115 Colony/Plate
Colony/Plate S-9 Mixture (+) (TA100; TA100, 625 μg/Plate): 76 Colony/Plate
Colony/Plate S-9 Mixture (−) (TA100; TA100, 625 μg/Plate): 110 Colony/Plate
Colony/Plate S-9 Mixture (+) (TA100; TA100, 1250 μg/Plate): 100 Colony/Plate
Colony/Plate S-9 Mixture (−) (TA100; TA100, 1250 μg/Plate): 112 Colony/Plate
Colony/Plate S-9 Mixture (+) (TA100; TA100, 2500 μg/Plate): 91 Colony/Plate
Colony/Plate S-9 Mixture (−) (TA100; TA100, 2500 μg/Plate): 115 Colony/Plate
Colony/Plate S-9 Mixture (+) (TA100; TA100, 5000 μg/Plate): 78 Colony/Plate
Colony/Plate S-9 Mixture (−) (TA100; TA100, 5000 μg/Plate): 108 Colony/Plate
Days for the test (death) 2 (ICR mice [3]; 2 mg/kg): 3
Days for the Test (death) 3 (ICR mice [3]; 2 mg/kg, day 3): 1
Days for the test (death) 6 (ICR mice [3]; 2 mg/kg, day 6): 1
Days for the test (death) Total (ICR mice [3]; 2 mg/kg): 5/5
Days for the test (death) 1 (ICR mice [3]; 5 mg/kg): 1
Days for the test (death) 2 (ICR mice [3]; 5 mg/kg): 4
Days for the test (death) Total (ICR mice [3]; 5 mg/kg): 5/5
Days for the test (death) 1 (ICR mice [3]; 10 mg/kg): 4
Days for the test (death) 2 (ICR mice [3]; 10 mg/kg): 1
Days for the test (death) Total (ICR mice [3]; 10 mg/kg): 5/5

Nc1c2ccccc2nc2ccccc12 [Compound 9-AA, 9-aminoacridine]
Colony/Plate S-9 Mixture (+) (TA1537; [10]): 588 Colony/Plate
Colony/Plate S-9 Mixture (−) (TA1537; [10]): 175 Colony/Plate

COc1cc2c(c(OC)c1OC)-c1ccc(SC)c(=O)cc1[C@@H](NC(=O)c1cccc(CCl)c1)CC2 [Compound 9]
immunosuppressive effect [4]: good immunosuppressive effect

COc1cc2c(c(OC)c1OC)-c1ccc(S(C)(=O)=O)c(=O)cc1C(NC(=O)CCCO[N+](=O)[O-])CC2 (stereo not drawn) [Compound 10, 4-nitrooxy-N-(1,2,3-trimethoxy-10-methylsulfonyl-9-oxo-5,6,7,9-tetrahydro-benzo[a]heptarene-7-yl)-butylamide]
immunosuppressive effect ([4]; MLR, FIG. 1): good immunosuppressive effect

COc1cc2c(c(OC)c1OC)-c1ccc(SC)c(=O)cc1[C@@H](NC(=O)c1ccc(CO[N+](=O)[O-])cc1)CC2 [Compound 11]
immunosuppressive effect [4]: good immunosuppressive effect

[N-]=[N+]=[N-] [Sodium azide, sodium azide]
Colony/Plate S-9 Mixture (+) (TA1535; [11]): 444 Colony/Plate
Colony/Plate S-9 Mixture (−) (TA1535; [11]): 279 Colony/Plate
Colony/Plate S-9 Mixture (+) (TA100; [12]): 616 Colony/Plate
Colony/Plate S-9 Mixture (−) (TA100; [12]): 453 Colony/Plate

Reference: patent US7119229B2 (priority 2001, dated 2006)
